Data published in patent US12357603B2, “Acyl sulfonamides for treating cancer” (Bayer Aktiengesellschaft, priority 2019, dated 2025).
Like-named read-outs stand apart in the source and are kept apart here.

Key:
[1] = target: Recombinant human His-tagged Kat6a protein (amino acids 194-810) (Homo sapiens (Human), UniProt Q92794); experiment: Kat6a activity assay (TR-FRET, acetylation of biotinylated Histone-H4-derived peptide); type: biochemical; settings: 60 mins at 22° C., read-out: KAT6A-DPF/HAT domain IC50 [mol/l] (arithmetic mean)
Excerpt: Kat6a inhibitory activities of the compounds described in the present invention were quantified using a Fluorescence Resonance Energy Transfer (TR-FRET) assay which measures acetylation of a synthetic, biotinylated Histone-H4-derived peptide by the enzyme.
Recombinant human His-tagged Kat6a protein (amino acids 194-810), was purified in-house from Baculovirus-infected insect cells (Sf9). Histone H4 peptide (amino acids 1-24, […]-VLRD-K(Btn)-amide), which was used as substrate, was synthesized by Biosyntan GmbH, Berlin, Germany. Acetyl Coenzyme A was purchased from Sigma-Aldrich (#A-2056).
Kat6a was incubated for 60 mins at 22° C. in the presence of different concentrations of test substances (0 μM, and within the range 0.01-20 μM) in assay buffer [25 mM Tris/HCl pH 8, 1 mM EGTA, 2.5 mM Glutathion, 0.02% Chicken Albumin, 0.05% Pluronic F127, 25 mM NaCl, 220 nM H4 peptide and 600 nM Acetyl Coenzym A].
The reaction was stopped by addition of Detection Solution (25 mM HEPES pH 7.5, 0.1% BSA, 22 nM SAXL665 (Cisbio #610SAXLE), 100 μM Anacardic Acid (Enzo #ALX-270-381), 1 nM Anti-Histone H4 (ACETYL K8) Antibody (ABCAM #AB15823) and 0.5 nM Anti-Rabbit IgG Eu (Perkin Elmer #AD0083).
The fluorescence emission at 620 nm and 665 nm after excitation at 330-350 nm was measured in a TR-FRET measuring instrument, for instance a Rubystar or a Pherastar (both from BMG Lab Technologies, Offenburg, Germany) or a Viewlux (Perkin-Elmer). The ratio of the emission at 665 nm and at […] was used as indicator of the amount of acetylated peptide.
The resulting data (ratio) were normalized, taking 0% inhibition as the mean value of control measurements where all reagents were included. In this case 50 nl DMSO were used instead of compounds. […] IC50 values were determined by regression analysis based on a 4 parameter equation (minimum, maximum, ICM, Hill; Y=Max+(Min−Max)/(1+(X/ICso) Hill) using the Screener Software (Genedata).
Table 5 depicts the IC50 values of selected examples in biochemical KAT6A and KAT6B3 assays.

[2] = system: ESR1 transcription (luciferase signal in MVLN cells); experiment: Repression of ESR1 transcription, luciferase reporter in MVLN cells; type: cell-based; settings: inhibition of luciferase signal in MVLN cells, arithmetic mean
Excerpt: Repression of ESR1 Transcription Upon Treatment of Cells with Compounds
KAT6A controls transcription of the ESR1 gene in breast cancer cells. Compound treatment that interferes with this mechanism was quantified using MVLN cells. These cells constitutively express the ER and are stably transfected with the luciferase (LUC) reporter gene and the corresponding hormone responsive element derived from the 5′-flanking region of the Xenopus Vitellogenin A2 gene (Pons et al., 1990, Demirpense et al., 1993, Joyeux et al., 1993). The repressive effect on ERα transcription activity of a test chemical is directly related to the luciferase measured in the lysate of treated MVLN cells.
Each sample was prepared as duplicate and rim wells were excluded. For luciferase signal determination 100 μl of a 1:1 mixture of Steadylite plus (Perkin Elmer; 6016759) and assay medium was added after 24 h for 15 minutes and measured in Victor X3 (Perkin Elmer). To exclude any effects caused by cell loss during the treatment, cell density was determined using Alamar Blue (Invitrogen; DAL1100). Prior to the luciferase measurement 10 μl Alamar Blue were added to each well and the plates were incubated for 2 h in the incubator. Then fluorescence was measured with Victor X3 (Perkin Elmer) at 530 nm/590 nm.

ZR-75-1 cells = experiment: Proliferation assay ZR-75-1 (Alamar Blue, 144 h); type: cell-based; settings: arithmetic mean, read-out: ZR75-1 proliferation assay, EC50 [M] (arithmetic mean)
Excerpt: Proliferation Assays for Compound Characterization
For compound characterization cell survival assays were routinely run in two cell lines. ZR-75-1 is a breast carcinoma cell line containing a focal KAT6A amplification and high KAT6A protein expression. Proliferation of this cell line is inhibited upon treatment with KAT6A inhibitors. As a negative control cell line MDA-MB-436 were used. These cells carry a […] deletion of the KAT6A gene, have a low KAT6A protein expression and are not growth inhibited upon treatment with KAT6A inhibitors.
For measurements cell lines were plated at the below indicated concentration per […] in 96-well plates in a humidified incubator at 37° C. and 5% CO2.
ZR-75-1 (ATCC, CRL-1500; breast carcinoma); 3000 cells per well; culture medium: RPMI 1640 (Biochrom #FG 1215) medium containing 2.5% FBS (Biochrom #S0615).
24 hours later, cells were treated with compounds (stock solution, 10 mM in DMSO) using the HP D300 Digital Dispenser in a concentration range of 2.0×10E-5 M to 2.0×10E-9 M in a single-dot curve with 9 dilutions and a DMSO concentration of 0.2%. Each sample was prepared as triplicate and rim wells were excluded. Plates were incubated at 37° C. and 5% CO2 for 144 h. Cell viability was measured by adding 10 μL of Alamar Blue Reagent (Invitrogen #DAL 1100) and plates were incubated for 2 h at 37° C. and 5% CO2. Fluorescence was measured at 590 nm wavelength with a Tecan Spark or Victor X3 MTP-Reader (PerkinElmer).

Recombinant human His-tagged Kat6a protein (amino acids 194-810), sequence (Q92794 194-810): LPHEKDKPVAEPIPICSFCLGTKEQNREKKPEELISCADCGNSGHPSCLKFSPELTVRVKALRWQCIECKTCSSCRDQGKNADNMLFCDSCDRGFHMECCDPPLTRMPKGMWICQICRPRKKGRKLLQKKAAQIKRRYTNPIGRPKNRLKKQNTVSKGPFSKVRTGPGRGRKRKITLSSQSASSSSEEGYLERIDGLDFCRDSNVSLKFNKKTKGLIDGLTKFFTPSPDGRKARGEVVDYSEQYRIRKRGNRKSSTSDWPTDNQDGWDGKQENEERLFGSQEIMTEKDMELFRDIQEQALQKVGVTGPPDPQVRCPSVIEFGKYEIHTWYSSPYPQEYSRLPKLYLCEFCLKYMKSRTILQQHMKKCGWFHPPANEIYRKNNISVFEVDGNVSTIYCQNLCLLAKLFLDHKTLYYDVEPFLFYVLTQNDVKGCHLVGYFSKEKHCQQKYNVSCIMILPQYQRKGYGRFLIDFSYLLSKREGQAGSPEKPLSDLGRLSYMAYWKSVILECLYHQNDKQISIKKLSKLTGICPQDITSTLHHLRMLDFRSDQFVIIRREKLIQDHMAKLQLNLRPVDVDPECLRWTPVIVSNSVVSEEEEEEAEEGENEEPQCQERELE

IC50 [1] | IC50 ([2]; Homo sapiens, MVLN) | IC50 [2] | Structure (SMILES) | EC50 (ZR-75-1 cells; Homo sapiens, ZR-75-1, 144 h) | EC50 (ZR-75-1 cells)
86.4 nM | – | – | CC(c1ccc(Cl)cc1Cl)S(=O)(=O)NC(=O)c1cc2ccc(N(C)C)cc2o1 (racemic) [Example 55, N-[1-(2,4-Dichlorophenyl)ethanesulfonyl]-6-(dimethylamino)-1-benzofuran-2-carboxamide (rac)] | – | –
67.6 nM | – | – | CC(c1c(Cl)cccc1Cl)S(=O)(=O)NC(=O)c1cc2ccc(N(C)C)cc2o1 (racemic) [Example 56, N-[1-(2,6-Dichlorophenyl)ethanesulfonyl]-6-(dimethylamino)-1-benzofuran-2-carboxamide (rac)] | – | –
40.6 nM | 226 nM | – | CC(Oc1cccc(OC2CCC2)c1S(=O)(=O)NC(=O)c1cc2ccc(N(C)C)cc2o1)C(F)(F)F (racemic) [Example 84, N-[2-(Cyclobutyloxy)-6-{[(2S)-1,1,1-trifluoropropan-2-yl]oxy}benzene-1-sulfonyl]-6-(dimethylamino)-1-benzofuran-2-carboxamide (rac)] | – | –
129 nM | – | – | CN(C)c1ccc2cc(C(=O)NS(=O)(=O)c3ccccc3Br)oc2c1 [Example 18, N-(2-Bromobenzene-1-sulfonyl)-6-(dimethylamino)-1-benzofuran-2-carboxamide] | – | –
430 nM | – | – | CN(C)c1ccc2cc(C(=O)NS(=O)(=O)c3ccccc3C(F)(F)F)oc2c1 [Example 54, 6-(Dimethylamino)-N-[2-(trifluoromethyl)benzene-1-sulfonyl]-1-benzofuran-2-carboxamide] | – | –
38.2 nM | – | – | CCOc1ccc(Br)cc1S(=O)(=O)NC(=O)c1cc2ccc(N(C)C)cc2o1 [Example 57, N-(5-Bromo-2-ethoxybenzene-1-sulfonyl)-6-(dimethylamino)-1-benzofuran-2-carboxamide] | – | –
534 nM | – | – | CCOc1ccncc1S(=O)(=O)NC(=O)c1cc2ccc(N(C)C)cc2o1 [Example 58, 6-(Dimethylamino)-N-(4-ethoxypyridine-3-sulfonyl)-1-benzofuran-2-carboxamide] | – | –
86.1 nM | – | – | CN(C)c1ccc2cc(C(=O)NS(=O)(=O)c3ccccc3O)oc2c1 [Example 59, 6-(Dimethylamino)-N-(2-hydroxybenzene-1-sulfonyl)-1-benzofuran-2-carboxamide] | – | –
3200 nM | – | – | CCOC(=O)N1CCC(S(=O)(=O)NC(=O)c2cc3ccc(N(C)C)cc3o2)CC1 [Example 60, Ethyl-4-{[6-(dimethylamino)-1-benzofuran-2-carbonyl]sulfamoyl}piperidine-1-carboxylate] | – | –
4.5 nM | 52.1 nM | – | CN(C)c1ccc2cc(C(=O)NS(=O)(=O)c3c(OCc4ccccc4)cccc3OC3CCC3)oc2c1 [Example 69, N-[2-(Benzyloxy)-6-(cycolbutyloxy)benzene-1-sulfonyl]-6-(dimethylamino)-1-benzofuran-2-carboxamide] | 3.84e-07 M | –
151 nM | 394 nM | – | CN(C)c1ccc2cc(C(=O)NS(=O)(=O)c3ccc([N+](=O)[O-])c4cccnc34)oc2c1 [Example 92, 6-(Dimethylamino)-N-(5-nitroquinoline-8-sulfonyl)-1-benzofuran-2-carboxamide] | 3.43e-07 M | –
2.29 nM | 8.63 nM | – | CCOc1ccc(C(C)C)cc1S(=O)(=O)NC(=O)c1cc2c(F)cc(N(C)C)cc2o1 [Example 107, 6-(Dimethylamino)-N-[2-ethoxy-5-(propan-2-yl)benzene-1-sulfonyl]-4-fluoro-1-benzofuran-2-carboxamide] | 4.49e-08 M | –
906 nM | 2720 nM | – | CN(C)c1ccc2cc(C(=O)NS(=O)(=O)c3ccc(F)c(F)c3F)oc2c1 [Example 153] | 2.77e-06 M | –
3080 nM | 11500 nM | – | Cc1cnc(Cl)c(S(=O)(=O)NC(=O)c2cc3ccc(N(C)C)cc3o2)c1 [Example 154] | 7e-06 M | –
932 nM | 1930 nM | – | CC(C)Nc1cccc(F)c1S(=O)(=O)NC(=O)c1cc2ccc(N(C)C)cc2o1 [Example 155] | 7.62e-06 M | –
3530 nM | 971 nM | – | CN(C)c1ccc2cc(C(=O)NS(=O)(=O)c3cccnc3Cl)oc2c1 [Example 156] | 4.97e-06 M | –
3180 nM | 6450 nM | – | Cc1cccc(C2CCCC2)c1S(=O)(=O)NC(=O)c1cc2ccc(N(C)C)cc2o1 [Example 157] | 9.45e-06 M | –
684 nM | 1490 nM | – | CN(C)c1ccc2cc(C(=O)NS(=O)(=O)c3c(F)cccc3C3CCC3)oc2c1 [Example 158] | 7.93e-06 M | –
233 nM | 519 nM | – | Cc1ccc(S(=O)(=O)NC(=O)c2cc3ccc(N(C)C)cc3o2)c(OC(F)F)c1 [Example 159] | 6.97e-07 M | –
324 nM | 741 nM | – | CN(C)c1ccc2cc(C(=O)NS(=O)(=O)c3c(F)cccc3OCC3CC3)oc2c1 [Example 160] | 5.7e-06 M | –
6770 nM | > 20000 nM | – | CN(C)c1ccc2cc(C(=O)NS(=O)(=O)c3cc(CO)ccc3OC(F)(F)F)oc2c1 [Example 161] | > 2e-05 M | –
335 nM | 340 nM | – | CCOc1c(F)cccc1S(=O)(=O)NC(=O)c1cc2ccc(N(C)C)cc2o1 [Example 169, 6-(Dimethylamino)-N-(2-ethoxy-3-fluoro-phenyl)sulfonyl-benzofuran-2-carboxamide] | – | –
94.9 nM | 102 nM | – | CCOc1cc(F)ccc1S(=O)(=O)NC(=O)c1cc2ccc(N(C)C)cc2o1 [Example 171, 6-(Dimethylamino)-N-(2-ethoxy-4-fluoro-phenyl)sulfonyl-benzofuran-2-carboxamide] | – | –
11.8 nM | 123 nM | – | CCOc1ccc(Oc2ccccc2)cc1S(=O)(=O)NC(=O)c1cc2ccc(N(C)C)cc2o1 [Example 174, 6-(Dimethylamino)-N-(2-ethoxy-5-phenoxy-phenyl)sulfonyl-benzofuran-2-carboxamide] | – | –
– | > 20000 nM | – | Cc1ccc2cccc(S(=O)(=O)NC(=O)c3cc4cc(C#N)c(N(C)C)cc4o3)c2n1 [Example 209, 5-Cyano-6-(dimethylamino)-N-(2-methylquinoline-8-sulfonyl)-1-benzofuran-2-carboxamide] | 9.4e-06 M | –
– | – | 180 nM | CN(C)c1ccc2cc(C(=O)NS(=O)(=O)c3ccccc3-c3ccccc3)oc2c1 [Example 226] | – | 2.46e-07 M

Structure (SMILES) | IC50 [1] | IC50 ([2]; Homo sapiens, MVLN) | IC50 [2] | EC50 (ZR-75-1 cells; Homo sapiens, ZR-75-1, 144 h) | EC50 (ZR-75-1 cells)
CN(C)c1ccc2cc(C(=O)NS(=O)(=O)c3ccccc3-c3ccccc3)oc2c1Br [Example 50, N-([Biphenyl]-2-ylsulfonyl)-7-bromo-6-(dimethylamino)-1-benzofuran-2-carboxamide] | 4230 nM | – | – | – | –
